Source: ChEMBL document CHEMBL4346729, “The discovery of novel 3-aryl-indazole derivatives as peripherally restricted pan-Trk inhibitors for the treatment of pain” (Bioorg Med Chem Lett, 2019)
The source made the active and inactive calls. The calls are words filed in the database; no cut-off is given here.

Assays:
[1] = Protein binding in Sprague-Dawley rat plasma; format: ADME, cell-free; conditions: read-out: PPB (converted)
[2] = Intrinsic clearance in human liver microsomes; format: ADME, Microsome; conditions: read-out: CLH
[3] = Clearance in Sprague-Dawley rat at 1 mg/kg, iv; format: ADME, organism-based; conditions: in vivo
Rattus norvegicus [4] = assay: Unbound drug level in plasma of CFA induced Sprague-Dawley rat at 0.8 mg/kg, po after 1 hr; format: ADME, organism-based; conditions: in vivo
[5] = biological target: BDNF/NT-3 growth factors receptor (Homo sapiens, UniProt Q16620); assay: Inhibition of human GST-tagged TRKB (456 to 822) expressed in baculovirus expression system using TK-biotin peptide as substrate incubated for 45 min by TR-FRET assay
Rattus norvegicus [6] = assay: Unbound drug level in plasma of CFA induced Sprague-Dawley rat at 4 mg/kg, po after 1 hr; format: ADME, organism-based; conditions: in vivo
[7] = Unbound drug level in brain of CFA induced Sprague-Dawley rat at 4 mg/kg, po after 1 hr; format: ADME, organism-based; conditions: in vivo, BLD = below limit of detection
Rattus norvegicus [8] = assay: Unbound drug level in plasma of CFA induced Sprague-Dawley rat at 100 mg/kg, po after 1 hr; format: ADME, organism-based; conditions: in vivo
Rattus norvegicus [9] = assay: Antinociceptive activity in CFA induced thermal hypersensitivity Sprague-Dawley rat model assessed as increase in paw withdrawal latency at 0.8 mg/kg, po after 1 hr; format: functional, organism-based
[10] = biological target: Tyrosine-protein kinase ABL1 (Homo sapiens) (UniProt P00519); assay: Inhibition of recombinant human N-terminal GST/His6-tagged ABL1 wt internal (P118 to S535) expressed in Sf9 insect cells at 20 nM using phosphatidylserine as substrate incubated for 60 mins in presence of [33P]-ATP by scintillation counting method
[11] = biological target: RAC-alpha serine/threonine-protein kinase (Homo sapiens) (UniProt P31749); assay: Inhibition of recombinant human N-terminal GST/His6-tagged and C-terminal His6-tagged AKT1(V106 to A480) expressed in Sf9 insect cells at 20 nM using phosphatidylserine as substrate incubated for 60 mins in presence of [33P]-ATP by scintillation counting method
[12] = biological target: 5'-AMP-activated protein kinase catalytic subunit alpha-1 (Homo sapiens) (UniProt Q13131); assay: Inhibition of recombinant human full length N-terminal GST/His6-tagged AMPKalpha1 (M1 to Q550) expressed in Sf9 insect cells at 20 nM using phosphatidylserine as substrate incubated for 60 mins in presence of [33P]-ATP by scintillation counting method
[13] = biological target: Aurora kinase A (Homo sapiens) (UniProt O14965); assay: Inhibition of recombinant human full length N-terminal GST/His6-tagged Aurora-A (M1 to S403) expressed in Sf9 insect cells at 20 nM using phosphatidylserine as substrate incubated for 60 mins in presence of [33P]-ATP by scintillation counting method
[14] = biological target: Dual specificity tyrosine-phosphorylation-regulated kinase 1A (Homo sapiens) (UniProt Q13627); assay: Inhibition of DYRK1A (unknown origin) at 20 nM using phosphatidylserine as substrate incubated for 60 mins in presence of [33P]-ATP by scintillation counting method
[15] = biological target: Glycogen synthase kinase-3 beta (Homo sapiens) (UniProt P49841); assay: Inhibition of recombinant human full length N-terminal GST/His6-tagged GSK3-beta (M1 to T420) expressed in Sf9 insect cells at 20 nM using phosphatidylserine as substrate incubated for 60 mins in presence of [33P]-ATP by scintillation counting method
[16] = biological target: Insulin receptor (Homo sapiens) (UniProt P06213); assay: Inhibition of recombinant human N-terminal GST/His6-tagged INS-R C-terminal (G989 to S1382) expressed in Sf9 insect cells at 20 nM using phosphatidylserine as substrate incubated for 60 mins in presence of [33P]-ATP by scintillation counting method
[17] = biological target: Interleukin-1 receptor-associated kinase 4 (Homo sapiens) (UniProt Q9NWZ3); assay: Inhibition of recombinant human IRAK4 C-terminal (A104 to S460) expressed in Sf9 insect cells at 20 nM using phosphatidylserine as substrate incubated for 60 mins in presence of [33P]-ATP by scintillation counting method
[18] = biological target: Mitogen-activated protein kinase kinase kinase kinase 4 (Homo sapiens) (UniProt O95819); assay: Inhibition of recombinant human N-terminal GST/His6-tagged MAP4K4 (A7 to W1320) expressed in Sf9 insect cells at 20 nM using phosphatidylserine as substrate incubated for 60 mins in presence of [33P]-ATP by scintillation counting method
[19] = biological target: MAP kinase-activated protein kinase 2 (Homo sapiens) (UniProt P49137); assay: Inhibition of recombinant human full length N-terminal GST/His6-tagged MAPKAPK2 (M1 to L370) expressed in Sf9 insect cells at 20 nM using phosphatidylserine as substrate incubated for 60 mins in presence of [33P]-ATP by scintillation counting method
[20] = biological target: Mitogen-activated protein kinase 14 (Homo sapiens) (UniProt Q16539); assay: Inhibition of recombinant human full length p38-alpha (M1 to S360) expressed in Escherichia coli at 20 nM using phosphatidylserine as substrate incubated for 60 mins in presence of [33P]-ATP by scintillation counting method
[21] = biological target: Serine/threonine-protein kinase D2 (Homo sapiens) (UniProt Q9BZL6); assay: Inhibition of PRKD2 (unknown origin) at 20 nM using phosphatidylserine as substrate incubated for 60 mins in presence of [33P]-ATP by scintillation counting method
[22] = biological target: Rho-associated protein kinase 2 (Homo sapiens) (UniProt O75116); assay: Inhibition of recombinant human N-terminal GST/His6-tagged ROCK2 internal (P6 to S553) expressed in baculovirus infected Sf9 insect cells at 20 nM using phosphatidylserine as substrate incubated for 60 mins in presence of [33P]-ATP by scintillation counting method
[23] = biological target: Ribosomal protein S6 kinase beta-1 (Homo sapiens) (UniProt P23443); assay: Inhibition of recombinant human N-terminal GST/His6-tagged S6K internal ([…]) expressed in Sf9 insect cells at 20 nM using phosphatidylserine as substrate incubated for 60 mins in presence of [33P]-ATP by scintillation counting method
[24] = biological target: Serine/threonine-protein kinase Sgk1 (Homo sapiens) (UniProt O00141); assay: Inhibition of recombinant human full length N-terminal GST and C-terminal His6-tagged SGK1 (M1 to L431) expressed in Sf9 insect cells at 20 nM using phosphatidylserine as substrate incubated for 60 mins in presence of [33P]-ATP by scintillation counting method
[25] = biological target: Proto-oncogene tyrosine-protein kinase Src (Homo sapiens) (UniProt P12931); assay: Inhibition of recombinant human full length N-terminal GST and C-terminal His6-tagged SRC (M1 to L536) expressed in Sf9 insect cells at 20 nM using phosphatidylserine as substrate incubated for 60 mins in presence of [33P]-ATP by scintillation counting method
[26] = biological target: Vascular endothelial growth factor receptor 2 (Homo sapiens) (UniProt P35968); assay: Inhibition of recombinant human N-terminal GST-tagged VEGF-R2 C-terminal (G443 to G796) expressed in Sf9 insect cells at 20 nM using phosphatidylserine as substrate incubated for 60 mins in presence of [33P]-ATP by scintillation counting method

Insulin receptor (Homo sapiens), sequence (P06213 28-758 limits assumed): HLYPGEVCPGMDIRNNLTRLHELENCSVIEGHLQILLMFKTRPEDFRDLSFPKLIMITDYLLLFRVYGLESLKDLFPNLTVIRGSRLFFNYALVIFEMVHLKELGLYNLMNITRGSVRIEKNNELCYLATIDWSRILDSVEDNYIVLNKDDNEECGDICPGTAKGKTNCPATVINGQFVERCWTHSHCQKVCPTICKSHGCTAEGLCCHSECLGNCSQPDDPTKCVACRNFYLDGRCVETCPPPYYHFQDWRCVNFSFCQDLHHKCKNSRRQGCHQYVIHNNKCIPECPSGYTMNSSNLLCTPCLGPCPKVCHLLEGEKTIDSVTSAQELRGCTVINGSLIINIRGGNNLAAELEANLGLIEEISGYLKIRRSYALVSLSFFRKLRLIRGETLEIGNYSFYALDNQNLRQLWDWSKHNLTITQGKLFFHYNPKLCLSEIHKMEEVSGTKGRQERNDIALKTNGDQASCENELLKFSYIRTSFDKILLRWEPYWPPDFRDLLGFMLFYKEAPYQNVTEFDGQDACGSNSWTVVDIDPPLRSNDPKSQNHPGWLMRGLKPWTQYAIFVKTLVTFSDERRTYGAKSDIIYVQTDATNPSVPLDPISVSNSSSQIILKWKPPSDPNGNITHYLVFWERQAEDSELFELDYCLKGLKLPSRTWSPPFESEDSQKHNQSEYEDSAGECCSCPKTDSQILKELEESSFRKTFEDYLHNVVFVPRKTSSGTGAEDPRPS
Insulin receptor (Homo sapiens), sequence (P06213 763-1382 limits assumed): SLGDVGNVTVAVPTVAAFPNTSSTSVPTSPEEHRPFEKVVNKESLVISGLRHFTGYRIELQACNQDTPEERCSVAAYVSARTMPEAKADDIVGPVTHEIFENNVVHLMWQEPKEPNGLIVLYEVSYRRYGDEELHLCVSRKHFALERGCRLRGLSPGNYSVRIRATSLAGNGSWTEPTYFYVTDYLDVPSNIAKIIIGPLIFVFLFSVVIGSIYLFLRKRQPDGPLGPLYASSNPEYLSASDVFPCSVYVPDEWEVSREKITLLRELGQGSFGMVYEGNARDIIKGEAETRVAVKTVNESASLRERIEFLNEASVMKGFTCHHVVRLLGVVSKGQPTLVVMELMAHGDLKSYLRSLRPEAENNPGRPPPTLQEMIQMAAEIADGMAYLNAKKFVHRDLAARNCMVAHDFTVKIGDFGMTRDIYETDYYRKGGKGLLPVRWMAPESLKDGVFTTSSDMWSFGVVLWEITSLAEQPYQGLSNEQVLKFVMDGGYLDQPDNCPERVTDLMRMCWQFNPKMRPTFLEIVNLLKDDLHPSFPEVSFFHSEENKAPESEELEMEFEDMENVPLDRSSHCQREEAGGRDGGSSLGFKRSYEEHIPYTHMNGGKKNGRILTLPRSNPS
Mitogen-activated protein kinase 14 (Homo sapiens), sequence (Q16539 whole entry): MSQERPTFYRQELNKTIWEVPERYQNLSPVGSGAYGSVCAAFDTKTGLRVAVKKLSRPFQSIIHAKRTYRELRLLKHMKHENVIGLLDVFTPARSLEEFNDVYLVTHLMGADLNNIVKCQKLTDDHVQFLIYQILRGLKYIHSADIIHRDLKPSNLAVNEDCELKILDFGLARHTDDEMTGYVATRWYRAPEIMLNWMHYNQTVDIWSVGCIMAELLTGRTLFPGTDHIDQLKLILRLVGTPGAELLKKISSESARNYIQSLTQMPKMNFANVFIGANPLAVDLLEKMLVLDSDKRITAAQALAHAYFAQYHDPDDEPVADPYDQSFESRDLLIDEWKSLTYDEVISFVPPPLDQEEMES
MAP kinase-activated protein kinase 2 (Homo sapiens), sequence (P49137 whole entry, looked up): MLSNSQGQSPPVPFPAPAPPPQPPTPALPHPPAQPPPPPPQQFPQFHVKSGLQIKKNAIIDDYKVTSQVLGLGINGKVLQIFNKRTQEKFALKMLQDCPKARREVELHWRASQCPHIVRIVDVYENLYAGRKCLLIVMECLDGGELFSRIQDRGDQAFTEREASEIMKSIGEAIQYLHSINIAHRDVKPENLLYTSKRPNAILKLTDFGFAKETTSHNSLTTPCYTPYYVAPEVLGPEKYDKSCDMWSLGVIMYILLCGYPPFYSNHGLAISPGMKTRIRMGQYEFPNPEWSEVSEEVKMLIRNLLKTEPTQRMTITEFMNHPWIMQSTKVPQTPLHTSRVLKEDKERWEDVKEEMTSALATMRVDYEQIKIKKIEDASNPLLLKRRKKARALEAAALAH
Proto-oncogene tyrosine-protein kinase Src (Homo sapiens), sequence (P12931 2-536 limits assumed): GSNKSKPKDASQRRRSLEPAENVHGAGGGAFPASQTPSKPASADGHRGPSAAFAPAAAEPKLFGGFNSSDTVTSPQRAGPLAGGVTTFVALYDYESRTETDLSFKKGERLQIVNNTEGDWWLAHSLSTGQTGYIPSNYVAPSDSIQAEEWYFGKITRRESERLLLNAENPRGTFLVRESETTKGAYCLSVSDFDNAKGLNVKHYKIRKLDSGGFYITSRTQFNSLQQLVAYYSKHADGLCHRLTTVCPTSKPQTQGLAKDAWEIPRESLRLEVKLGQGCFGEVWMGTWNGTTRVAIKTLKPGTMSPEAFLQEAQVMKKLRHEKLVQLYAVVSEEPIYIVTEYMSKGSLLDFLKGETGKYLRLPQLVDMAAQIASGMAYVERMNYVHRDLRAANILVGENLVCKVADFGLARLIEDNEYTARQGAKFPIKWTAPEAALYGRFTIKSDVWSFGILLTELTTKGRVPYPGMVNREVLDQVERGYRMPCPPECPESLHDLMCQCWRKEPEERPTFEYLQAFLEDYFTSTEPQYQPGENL
Serine/threonine-protein kinase D2 (Homo sapiens), sequence (Q9BZL6 whole entry): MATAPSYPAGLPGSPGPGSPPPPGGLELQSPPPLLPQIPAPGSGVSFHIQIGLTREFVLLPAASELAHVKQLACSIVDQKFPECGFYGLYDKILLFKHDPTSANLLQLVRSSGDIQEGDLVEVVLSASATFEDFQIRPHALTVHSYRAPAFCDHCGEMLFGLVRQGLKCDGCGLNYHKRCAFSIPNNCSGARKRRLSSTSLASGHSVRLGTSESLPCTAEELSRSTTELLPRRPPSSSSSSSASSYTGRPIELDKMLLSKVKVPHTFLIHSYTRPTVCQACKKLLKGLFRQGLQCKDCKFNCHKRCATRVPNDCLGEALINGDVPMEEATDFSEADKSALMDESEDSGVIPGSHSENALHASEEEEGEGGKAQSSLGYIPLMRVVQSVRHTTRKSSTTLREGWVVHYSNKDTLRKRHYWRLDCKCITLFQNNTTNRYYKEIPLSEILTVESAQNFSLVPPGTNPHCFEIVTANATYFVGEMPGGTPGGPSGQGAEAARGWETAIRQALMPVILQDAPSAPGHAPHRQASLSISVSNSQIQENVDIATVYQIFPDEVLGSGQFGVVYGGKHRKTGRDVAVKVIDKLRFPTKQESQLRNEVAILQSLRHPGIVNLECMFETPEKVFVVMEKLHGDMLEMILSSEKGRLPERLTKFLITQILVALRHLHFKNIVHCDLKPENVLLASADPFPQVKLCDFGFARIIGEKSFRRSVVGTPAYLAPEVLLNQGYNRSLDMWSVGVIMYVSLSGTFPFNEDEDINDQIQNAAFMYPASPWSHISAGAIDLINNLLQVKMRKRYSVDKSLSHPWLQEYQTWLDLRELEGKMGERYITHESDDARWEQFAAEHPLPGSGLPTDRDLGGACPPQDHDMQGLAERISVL
Mitogen-activated protein kinase kinase kinase kinase 4 (Homo sapiens), sequence (O95819 2-1239 limits assumed): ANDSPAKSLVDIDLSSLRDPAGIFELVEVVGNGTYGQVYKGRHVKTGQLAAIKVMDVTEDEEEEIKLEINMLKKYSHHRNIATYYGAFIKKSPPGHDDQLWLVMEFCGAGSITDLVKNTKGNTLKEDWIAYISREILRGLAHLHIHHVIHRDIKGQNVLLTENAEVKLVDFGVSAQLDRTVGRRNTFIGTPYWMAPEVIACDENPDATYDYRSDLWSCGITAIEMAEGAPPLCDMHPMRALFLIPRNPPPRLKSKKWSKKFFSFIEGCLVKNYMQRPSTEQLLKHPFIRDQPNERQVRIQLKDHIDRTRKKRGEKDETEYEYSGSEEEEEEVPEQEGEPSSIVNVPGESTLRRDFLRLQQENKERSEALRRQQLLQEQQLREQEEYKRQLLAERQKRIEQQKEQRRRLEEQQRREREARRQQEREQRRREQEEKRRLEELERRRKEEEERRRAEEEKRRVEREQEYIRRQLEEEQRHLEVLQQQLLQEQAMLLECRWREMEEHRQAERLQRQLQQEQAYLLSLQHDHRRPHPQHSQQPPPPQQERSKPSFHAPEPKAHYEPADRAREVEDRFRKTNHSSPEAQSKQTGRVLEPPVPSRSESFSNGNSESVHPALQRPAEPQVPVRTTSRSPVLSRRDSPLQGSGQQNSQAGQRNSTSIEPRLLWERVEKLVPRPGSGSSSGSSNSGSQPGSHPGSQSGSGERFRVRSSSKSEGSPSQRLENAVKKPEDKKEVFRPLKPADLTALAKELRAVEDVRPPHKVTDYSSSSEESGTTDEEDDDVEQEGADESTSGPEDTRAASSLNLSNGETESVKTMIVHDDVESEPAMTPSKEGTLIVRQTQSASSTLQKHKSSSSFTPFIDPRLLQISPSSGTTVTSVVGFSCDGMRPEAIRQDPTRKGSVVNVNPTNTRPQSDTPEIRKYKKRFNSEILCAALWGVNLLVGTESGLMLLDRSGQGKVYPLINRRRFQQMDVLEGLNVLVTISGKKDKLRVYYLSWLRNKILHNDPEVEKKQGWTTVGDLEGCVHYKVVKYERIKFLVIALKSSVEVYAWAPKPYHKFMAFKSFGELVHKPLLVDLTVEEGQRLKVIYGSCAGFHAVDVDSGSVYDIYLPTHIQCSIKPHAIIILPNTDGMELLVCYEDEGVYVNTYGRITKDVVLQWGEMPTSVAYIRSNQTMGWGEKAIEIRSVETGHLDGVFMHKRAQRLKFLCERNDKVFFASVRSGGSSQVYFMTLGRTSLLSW

For Cn1cc(-c2n[nH]c3ccc(NCc4cc(F)ccc4S(C)(=O)=O)cc23)cn1, the fraction unbound [1] was 0.134, the CLint scaled [2] was 127 mL/min/kg and the clearance [3] was 73.3 mL/min/kg. The “Cp(f)” value (Rattus norvegicus [4]) was 4.7 nM, the IC50 [5] was 0.2 nM and the “Cp(f)” value (Rattus norvegicus [6]) was 14.9 nM. The “Drug uptake(free)” value [7] was “Bld”, the “Cp(f)” value (Rattus norvegicus [8]) was 266.5 nM and the Activity (Rattus norvegicus [9]) was “inactive”. The inhibition [10] was 1%, the inhibition [11] was 6% and the inhibition [12] was -9%. The inhibition [13] was -7%, the inhibition [14] was -7% and the inhibition [15] was 11%. It also gave an inhibition [16] of -7%, an inhibition [17] of -8% and an inhibition [18] of 5%. For the same compound, the inhibition [19] was 19%, the inhibition [20] was -8% and the inhibition [21] was -8%. The inhibition [22] was 5%, the inhibition [23] was 3% and the inhibition [24] was -1%. The inhibition [25] was 2% and the inhibition [26] was 4%.
